In patent EP4574175A1, “PRODRUG FOR ANTI-AGING RELATED DISEASES AND USE METHOD THEREFOR” (BEIJING SUNCELL BIO-MEDICAL CO., LTD., priority 2022, dated 2024):
Read-outs that look alike come from different tables or passages of the source.

Legend:
in vitro [1] = details: mouse
Protocol: […] Samples were taken and analyzed at time points 0, 15, 30, 45 and 60 minutes during the incubation. The reaction was terminated by adding an amount of acetonitrile solution containing the internal standard. […] The residual percentage, half-life, intrinsic clearance, amplified clearance, hepatic clearance and hepatic extraction ratio were determined. The entire experiment was performed in triplicate. All data calculations were performed by Microsoft Excel software. Peak areas were detected by extracting the ionic spectrum. The in vitro half-life (t1/2) of the parent compound was detected by fitting the natural logarithm of the percentage elimination of the parent compound linearly to time.
The in vitro intrinsic clearance (in µL/min/mg protein) was calculated using the following equation: in vitro CLint = kV/N
The amplified clearance (in mL/min/kg) was calculated using the following equation: Amplified CLint = kV/N × the amplification factor [formula]
The hepatic clearance (in mL/min/kg) was calculated using the following equation: The predicted hepatic CLH = (Q×Fu/RB×theamplifiedCLint)/([…]) [formula] • V = the incubation volume per well (0.2 mL); • N = the total amount of protein (mg) • Q = the hepatic blood flow (mL/min/kg) • Fu = the plasma free rate (assumed to be 1) • RB = the whole blood partition coefficient (assumed to be 1)
The hepatic […] was calculated using the following equation: The hepatic extraction ratio(ER) = (thepredictedhepaticCLH)/Q [formula]

[2] = human, 1 µM
[3] = monkey, 1 µM
[4] = dog, 1 µM
[5] = rat, 1 µM
in vitro [6] = details: human
in vitro [7] = details: monkey
in vitro [8] = details: dog
in vitro [9] = details: rat

O=c1ccc2ccc(O)cc2o1 [7-hydroxycoumarin]
CLint scaled at 1 µM (in vitro [1]): 87.8 mL/min/kg
The hepatic extraction ratio (E) (in vitro [1]; 1 µM): 0.98
CLint scaled at 1 µM (in vitro [1]; microsomes): 3630 mL/min/kg
half-life at 1 µM (in vitro [1]; microsomes): 1.68 min
microsomal CLint at 1 µM (in vitro [1]; microsomes): 824 µL/min/mg
The hepatic extraction ratio (E) [2]: 0.97
The hepatic extraction ratio (E) [3]: 0.97
The hepatic extraction ratio (E) [4]: 0.99
The hepatic extraction ratio (E) [5]: 0.95
CLint scaled at 1 µM (in vitro [6]): 20.2 mL/min/kg
CLint scaled at 1 µM (in vitro [6]; microsomes): 774 mL/min/kg
half-life at 1 µM (in vitro [6]; microsomes): 2.25 min
microsomal CLint at 1 µM (in vitro [6]; microsomes): 617 µL/min/mg
CLint scaled at 1 µM (in vitro [7]; The predicted intrinsic hepatic clearance Cl int): 42.1 mL/min/kg
half-life at 1 µM (in vitro [7]; microsomes): 1.72 min
microsomal CLint at 1 µM (in vitro [7]; microsomes): 806 µL/min/mg
CLint scaled at 1 µM (in vitro [7]; microsomes, The amplified intrinsic clearance Cl int): 1210 mL/min/kg
CLint scaled at 1 µM (in vitro [8]): 30.4 mL/min/kg
CLint scaled at 1 µM (in vitro [8]; microsomes): 2050 mL/min/kg
half-life at 1 µM (in vitro [8]; microsomes): 1.68 min
microsomal CLint at 1 µM (in vitro [8]; microsomes): 824 µL/min/mg
CLint scaled at 1 µM (in vitro [9]): 52.3 mL/min/kg
CLint scaled at 1 µM (in vitro [9]; microsomes): 1010 mL/min/kg
half-life at 1 µM (in vitro [9]; microsomes): 2.47 min
microsomal CLint at 1 µM (in vitro [9]; microsomes): 562 µL/min/mg
